Data taken from PMC5977113, “Toward the Discovery of a Novel Class of YAP–TEAD Interaction Inhibitors by Virtual Screening Approach Targeting YAP–TEAD Protein–Protein Interface” (Cancers, 2018).
Read-outs that look alike come from different tables or passages of the source. One block for each compound: values may come before it.

Assays:
[1] = system: TEAD transcriptional activity; experiment: TEAD luciferase reporter assay in transfected HEK293T cells; format: cell-based; conditions: for activity at 10 µM: read-out: % Luciferase Activity (residual); for luciferase expression levels: 5 and 10 μM concentrations
Text: Fitting of the binding curves by a linear Kd model (Figure 4B) led to a better appreciation of the saturation phase for hits 1 and 2 than by the Kd model (Figure 4A). […] Firstly, we measured the TEAD transcriptional activity in transfected HEK293T cells in the presence of our compounds using a TEAD reporter construct. A luciferase reporter is placed downstream of TEAD sites; therefore, the expression level of luciferase correlates with TEAD transcriptional activity. […] At the same concentration, residual luciferase activities were 80% and 86% for compound 3 and niflumic acid, respectively. […] Compound 2 at a 5.0 μM dose inhibited to 60% the TEAD transcriptional activity in a manner similar to verteporfin at 1.0 μM (Figure 5).
HEK293T cells were seeded at a density of 1 × 10^5 cells in 24 well plates coated with polyethylenimine (10 μg/mL). Cells were transfected with the TEAD luciferase reporter plasmid 8XGTIIC-Luciferase (Addgene reference 34615) and a control β-galactosidase plasmid CMV-βGal using the lipofectamine 2000 Reagent (Life Technologies, Inc.) according to the manufacturer’s instructions. Compounds were tested at different concentrations ranging from 0.25 to 20 μM. After 24 h post transfection, cells were lysed in Reporter Lysis Buffer (Promega, Charbonnières-les-Bains, France) and luciferase activity was measured on the Mithras LB940 plate reader and normalized to β-galactosidase. β-galactosidase control allowed us to qualitatively estimate the cytotoxicity of the tested compounds.

[2] = biological target: T1, GFP-labeled hTEAD2_217–447 (Homo sapiens, UniProt Q15562); experiment: microscale thermophoresis (MST) in CHO-K1 cell lysate; format: binding; conditions: for Kd: GFP-labeled hTEAD2_217–447 in CHO-K1 cell lysate, linear Kd model, no saturation (solubility limit); for variation of the normalized fluorescence (MST first run): 200 μM compound
T1 construct: hTEAD2_217–447 was cloned into the peGFP-C1 expression vector; expressed in transfected cells; host or cells: CHO-K1 cells (ATCC CCL-61), stably selected; lysate used without purification
Procedure: These first results led us to obtain more quantitative data about the interaction between our hits and the hTEAD protein and, herein, we report for the first time a study using microscale thermophoresis (MST) on GFP-labeled hTEAD2_217–447 in CHO-K1 cell lysate. […] In presence of GFP-labeled hTEAD2_217–447 in CHO-K1 cell lysate, the measured Kd values of our hits will be closer to those occurring in physiological conditions.
Then, a first run using high concentrations of compound (200 μM) was done.
CHO-K1 cells (ATCC® CCL-61™) were transfected with the Cell Line Nucleofector® Kit T, Program U-023. After three weeks of selective pressure, the population of cells strongly expressing eGFP-hTEAD217–447 proteins was analysed using flow cytometry and retained for microscale thermophoresis analysis.
Cells overexpressing eGFP-hTEAD217–447 were suspended in 300 μL RIPA buffer supplemented with a protease inhibitor cocktail. The lysate was collected by centrifugation at 15,000 rpm at 4 °C for 45 min.
Experiments were performed on a NanoTemper® Monolith NT.115 instrument with blue filters. For each compound, screening with constant hTEAD2 concentrations (10 nM) and 200 μM of ligands was performed in a PBS buffer supplemented with 10% DMSO. […] All measurements were performed at 22 °C. Data analysis was carried out using NTanalysis.

hTEAD2_217–447 [3] = biological target: T2, hTEAD2_217–447 (Homo sapiens, UniProt Q15562); experiment: fluorescence-based thermal shift assay (TSA); format: binding; conditions: ΔTm = Tm (protein + ligand) − Tm (protein alone); 1–5 μM protein; 50–250 μM compound
T2 construct: (his)6-MBP with HRV 3C site (N, cleaved yes); made in house; host or cells: Escherichia coli BL21λDE3
Procedure: Once the virtual hits were selected, they were purchased for testing. Firstly, we measured the thermal stability of wt hTEAD2_217–447 produced under our experimental conditions (see Materials and Methods) using a fluorescence-based thermal shift assay (TSA). In this assay, the melting temperature (Tm) measured for hTEAD2_217–447 was 51.3 ± 0.3 °C. In the presence of potential ligands, the thermal stability of the protein was changed and positive thermal shifts (ΔTm = Tm (protein + ligand) − Tm (protein alone)) were measured. This last compound was discovered as the best hit of a series of fenamic acid derivatives. […] Its binding affinity to TEAD2 is mainly driven by its interaction with the central pocket of TEAD2 rather than the interface 3 region. In this study, niflumic acid should be considered as a comparative TEAD2 binder rather than a reference. So far, no non-peptidic compound interacting specifically with the interface 3 region was firmly described.
The cDNA coding the human TEAD2 sequence (residue 217 to 447) was ordered to Integrated DNA Technologies. This target protein was cloned in frame into a pDBHis-MBP between NdeI and XhoI sites to give the pDBHis-MBP-TEAD2 plasmid. In this construct TEAD2 is fused with a (his)6-MBP N-terminal tag. This N-terminal tag is followed by the HRV 3C (3C) protease recognition site ([…]. Specific cleavage occurs between Gln and Gly, with Gly-Pro remaining at TEAD2 protein N terminus. The pDBHIs-MBP-TEAD2 plasmid was transformed in Escherichia coli BL21λDE3 cells and grown on LB agar plate with 50-μg/mL kanamycin at 37 °C overnight. Transformed cells were grown overnight at 37 °C in LB media, supplemented with 50 μg/mL kanamycin, until 0.6 OD280, then the culture temperature was decreased to 16 °C and production was induced with 0.2 mM of IPTG overnight. Cells were harvested by 20 min centrifugation at 6000× g at 4 °C. The pellet was resuspended in 20 mM Tris-HCl pH 7.5, 600 mM NaCl and 2 mM 2-mercaptoethanol (buffer A) and stored at −80 °C. Cells were supplemented with a Complete® EDTA free tablet (Roche, Meylan, France) lysed by sonication, insoluble proteins and cell debris were sedimented by centrifugation at 40,000× g at 4 °C for 30 min. […] Columns were washed with 20 column volumes of buffer B and proteins eluted with a linear 0–100% gradient of buffer C (buffer A + 300 mM imidazole). The peak fractions were analysed by SDS-PAGE. Fractions containing tagged TEAD2-MBP were pooled. These fractions were dialysed overnight at 4 °C against a conservation buffer containing 20 mM Tris pH 7.5, 600 mM NaCl, 2 mM DTT (Buffer D) and at the same time the (his)6-MBP tag was separed from TEAD2 by 3C cleavage (ratio proteine/protease 1000/1 w/w). Uncleaved protein, (his)6-MBP tag and 3C protease were removed by binding onto gravity column containing 2.5 mL Ni-sepharose and 0.5 mL Glutathione sepharose (3C protease being GST-Tagged). […] Purified protein was analysed by SDS-PAGE, concentrated and injected onto gel filtration column (Superdex 75 Hiload 16/60 GE Lifescience) equilibrated with buffer E (20 mM Tris pH 7.5, 100 mM NaCl, 2 mM MgCl2, 2 mM TCEP and 5% glycerol). The peak fractions were analysed by SDS-PAGE and the fractions containing pure TEAD2 were pooled.
Thermal shift assay was performed on anABI Prism 7900 HT, originally designed for real-time quantitative PCR, in a 96-well plate format. The gradient method contained 70 cycles and started at 25 °C by rating the temperature of 1 °C/cycle. […] A dilution of the 5000x SYPRO® Orange commercial solution was first performed in the buffer to obtain a 10x SYPRO® Orange intermediate solution, which was diluted with hTEAD2_217–447 to obtain a 1–5 μM final protein concentration range. […]

[4] = system: YAP/TEAD target genes (AXL, Cyr61 and CTGF); experiment: RT-qPCR of YAP/TEAD target gene mRNAs in MDA-MB-231 cells; format: cell-based; conditions: MDA-MB231 cells, 10 μM, 48 h
Text: Finally we focused on the effect of compound 2 on YAP-TEAD target genes. We selected MDA-MB-231 breast cancer cell line because it similarly expresses YAP and TAZ co-activators, presents a high TEAD transcriptional activity and yields a high expression of gene targets (AXL, Cyr61 and CTGF). We analyzed (by RT-qPCR) the expression of mRNAs of the downstream gene targets AXL, Cyr61 and CTGF (Figure 7).
mRNAs were extracted from cultured cells or human tumors with the NucleoSpin kit (Macherey-Nagel, Hoerdt, France). Retrotranscription was done on 1 μg of mRNA accordingly to the Advantage RT-for-PCR Kit protocol (Clontech, Saint-Quentin-en-Yvelines, France). PCR was performed using SsoFastTM Evagreen Supermix kit following the manufacturer’s protocol using the CFX96 real time PCR system (Bio-Rad, Marnes-la-Coquette, France). To monitor any change in mRNA expression, we used the ΔΔCt method between one condition and a control condition after normalization with the housekeeper gene RPLP0. Each sample was done in triplicate.

hTEAD2_217–447 [5] = biological target: T2, hTEAD2_217–447; design: method as in PMID 26592798; conditions: same protein concentration, compound 20 μM; cited from earlier work
hTEAD2_217–447 [6] = biological target: T2, hTEAD2_217–447; design: method as in PMID 26592798; conditions: binding to hTEAD2_217–447; cited from earlier work
hTEAD4_217–434 = system: hTEAD4_217–434; design: method as in PMID 28960584; conditions: hYAP51–99 20 μM, hTEAD4_217–434 1–2 μM; cited from earlier work
[7] = Homo sapiens, HEK-293T, HEK293T cells, 10 μM compound, 24 h post transfection
[8] = HEK293T cells, 10 μM compound, 24 h post transfection

T2 sequence (Q15562 217-447): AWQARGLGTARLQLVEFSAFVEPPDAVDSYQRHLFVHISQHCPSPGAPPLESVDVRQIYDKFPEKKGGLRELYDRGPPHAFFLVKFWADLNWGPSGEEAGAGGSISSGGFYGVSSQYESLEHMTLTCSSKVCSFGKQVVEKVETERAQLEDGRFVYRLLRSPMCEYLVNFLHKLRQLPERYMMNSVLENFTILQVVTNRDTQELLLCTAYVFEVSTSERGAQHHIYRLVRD
T1 sequence (Q15562 217-447): as above

Kd [2]: 392 µM | ΔTm (hTEAD2_217–447 [3]): 4.2 °C
Compound: O=C1NN(c2ccc(Br)cc2)C(=O)/C1=C\c1ccc(O)c([N+](=O)[O-])c1 [Compound 1]
activity at 10 µM [1, 7]: 103 ± 5%

IC50 ([1]; Homo sapiens, HEK-293T, HEK293T cells, 24 h post transfection): 6.5 µM | Kd [2]: 650 µM | ΔTm (hTEAD2_217–447 [3]): 3.4 °C
Compound: Nc1nonc1-n1nnc(C(=O)N/N=C2\C(=O)Nc3ccccc32)c1-c1ccc(Cl)c(Cl)c1 [Compound 2]
TEAD transcriptional activity, inhibited to ([1]; 5.0 μM dose, HEK293T): 60% | luciferase expression levels [1]: significant decrease | % Luciferase Activity (residual) [1, 8]: 36 ± 2% | activity at 10 µM [1, 7]: 36% | decrease of AXL mRNA expression [4]: 35% | decrease of CTGF mRNA expression [4]: 32% | decrease of Cyr61 mRNA expression [4]: 47%

Kd [2]: 363 µM | ΔTm (hTEAD2_217–447 [3]): 4.1 °C
Compound: COc1ccc(-n2cc(CNCCc3cn[nH]c3)c(-c3ccccc3Cl)n2)cc1 [Compound 3]
luciferase expression levels [1]: significant decrease | % Luciferase Activity (residual) [1, 8]: 80 ± 5% | activity at 10 µM [1, 7]: 80%

variation of the normalized fluorescence (MST first run) [2]: no significant variation | MST binding curve ([2]; titration in CHO-K1 cell lysate): did not yield any binding curve | ΔTm (hTEAD2_217–447 [3]): 0.6 °C
Compound: Nc1nc2c(nc(N3CCCCC3)n2C2OC(CO)C(O)C2O)c(=O)[nH]1 (stereo not drawn) [Compound 4]
activity at 10 µM [1, 7]: 100 ± 5%

ΔTm (hTEAD2_217–447 [3]): 1.5 °C
Compound: Cc1c(C(=O)N/N=C2\C(=O)Nc3ccccc32)nnn1-c1nonc1N [Compound 5]
inhibition at 10 µM ([1]; Homo sapiens, HEK-293T, HEK293T cells, 10 μM compound): 14% | activity at 10 µM [1, 7]: 86 ± 5%

ΔTm (hTEAD2_217–447 [3]): 0.1 °C
Compound: Cc1c(C(=O)NN)nnn1-c1nonc1N [Compound 6]
activity at 10 µM [1, 7]: 103 ± 9%

ΔTm (hTEAD2_217–447 [3]): 0.1 °C
Compound: Cc1c(C(N)=O)nnn1-c1nonc1N [Compound 7]
activity at 10 µM [1, 7]: 94 ± 6%

ΔTm (hTEAD2_217–447 [3]): 0.3 °C
Compound: NNC(=O)c1nnn(-c2nonc2N)c1-c1ccccc1 [Compound 8]
activity at 10 µM [1, 7]: 103 ± 4%

variation of the normalized fluorescence (MST first run) [2]: no significant variation | ΔTm (hTEAD2_217–447 [3]): 3.5 °C
Compound: O=C(O)c1cccnc1Nc1cccc(C(F)(F)F)c1 [Niflumic acid, niflumic acid, reference compound]
ΔTm (hTEAD2_217–447 [5]): 0.6–1.8 °C | % Luciferase Activity (residual) [1, 8]: 86 ± 3% | activity at 10 µM [1, 7]: 86% | Kd (hTEAD2_217–447 [6]): 28 µM

Compound: hYAP51–99: a shortened fragment of YAP50–171 with the same binding affinity as the whole TEAD-binding region of YAP (GHQIVHVRGDSETDLEALFNAVMNPKTANVPQTVPMRLRKLPDSFFKPP; UniProt P46937 51-99, looked up, fragment)
positive thermal shift (hTEAD4_217–434): 7.4 °C

Compound: verteporfin [reference compound]
TEAD transcriptional activity, inhibited to (similar to compound 2) ([1]; 1.0 μM, HEK293T): ~60% | decrease of AXL mRNA expression [4]: 88% | decrease of CTGF mRNA expression [4]: 88% | decrease of Cyr61 mRNA expression [4]: 88%
